# Biological target: T1, human Cav3.2 channels (Homo sapiens, UniProt O95180)
# T1 construct: human Cav3.2 channel ORF (Open Reading Frame) gene; expressed in transfected cells; host or cells: HEK293 cells (ATCC No. CRL-1573), pcDNA3.1(+) plasmid
# Experiment: T-type calcium blocking action: intracellular calcium (Fluo-4 AM fluorescence) in HEK293 cells steadily expressing human Cav3.2 channels
# Assay type: cell-based
# Conditions: HEK293 cells expressing human Cav3.2; KCl-stimulated calcium influx, Fluo-4 fluorescence; Tables 1 to 3
# Source text: T-Type Calcium Blocking Action
# (1) Construction of Cells Steadily Expressing Human Cav3.2 Channels
# A sequence obtained by adding HindIII site and a kozak sequence (GCCACC) to the 5′-side of human Cav3.2 channel ORF (Open Reading Frame) gene and adding a KpnI site to the 3′-side of the gene, was incorporated into pcDNA3.1(+) (Thermo Fisher Scientific, #V790-20), and the plasmid was introduced into HEK293 cells (ATCC No. CRL-1573) according to the protocol of FuGENE (registered trademark) HD Transfection Reagent (Promega, #E2311).
# (2) Method for Measuring Intracellular Calcium Concentration
# The cells steadily expressing human Cav3.2 channels produced by testing method (1) were seeded on a 96-well plate (Dulbecco's modified Eagle medium (DMEM) medium containing 10% fetal bovine serum (FBS) was used as a medium). The cells were seeded and cultured for 48 hours under conditions of 37° C. and 5% CO2. Thereafter, the cells were washed with buffer A in order to remove the medium. Each well was treated with 80 μL of a fluorescent dye solution produced by mixing 22 μg of a fluorescent calcium indicator, Fluo-4 AM (Dojindo Laboratories, #F311), 20 μL of DMSO, 1 μL of 10% Pluronic F-127 (Thermo Fisher Scientific, #P6866), and 4 mL of buffer A. The cells were allowed to stand for 45 minutes at room temperature under light-shielded conditions, and then washed with buffer B in order to completely replace the solution. 70 μL of DMSO having the same concentration as that of a test compound as a negative control and 70 μL of a mixture containing 1 μM of a known blocker RQ-00311651 and the test compound as a positive control were each added to each well in a form of being contained in the buffer B. The test compound was dissolved in 100% DMSO and added at a final concentration of 0.1%. Then, the cells were further allowed to stand at room temperature under light-shielded conditions for 15 minutes and placed in a microplate reader EnVision (PerkinElmer). Background fluorescence was measured in each well, and then a 5 μg/mL grammicidin solution was added to buffer B at 10 μL/well. After 90 seconds, baseline fluorescence was measured. Thereafter, 83.8 mM KCl was added to buffer B at 20 μL/well, and an increase in fluorescence caused by calcium influx generated by the stimulus was measured for 10 seconds. A blocking percentage was calculated from a maximum fluorescence increase value from a baseline, a logarithmic value of a compound concentration and blockery activity were plotted, and thereby an IC50 value was calculated. In the measurement, fluorescence at 510 nm that was emitted when the cells were irradiated with excitation light at 485 nm was observed.
# Buffer A: 140 mM NaCl, 5 mM KCl, 1 mM MgCl2, 0.5 mM CaCl2, 10 mM Glucose, 10 mM HEPES, pH 7.3
# Buffer B: 137.9 mM Choline-Cl, 4.1 mM KCl, 1 mM MgCl2, 0.5 mM CaCl2, 10 mM Glucose, 10 mM HEPES, pH 7.3
# T1 sequence (O95180 whole entry): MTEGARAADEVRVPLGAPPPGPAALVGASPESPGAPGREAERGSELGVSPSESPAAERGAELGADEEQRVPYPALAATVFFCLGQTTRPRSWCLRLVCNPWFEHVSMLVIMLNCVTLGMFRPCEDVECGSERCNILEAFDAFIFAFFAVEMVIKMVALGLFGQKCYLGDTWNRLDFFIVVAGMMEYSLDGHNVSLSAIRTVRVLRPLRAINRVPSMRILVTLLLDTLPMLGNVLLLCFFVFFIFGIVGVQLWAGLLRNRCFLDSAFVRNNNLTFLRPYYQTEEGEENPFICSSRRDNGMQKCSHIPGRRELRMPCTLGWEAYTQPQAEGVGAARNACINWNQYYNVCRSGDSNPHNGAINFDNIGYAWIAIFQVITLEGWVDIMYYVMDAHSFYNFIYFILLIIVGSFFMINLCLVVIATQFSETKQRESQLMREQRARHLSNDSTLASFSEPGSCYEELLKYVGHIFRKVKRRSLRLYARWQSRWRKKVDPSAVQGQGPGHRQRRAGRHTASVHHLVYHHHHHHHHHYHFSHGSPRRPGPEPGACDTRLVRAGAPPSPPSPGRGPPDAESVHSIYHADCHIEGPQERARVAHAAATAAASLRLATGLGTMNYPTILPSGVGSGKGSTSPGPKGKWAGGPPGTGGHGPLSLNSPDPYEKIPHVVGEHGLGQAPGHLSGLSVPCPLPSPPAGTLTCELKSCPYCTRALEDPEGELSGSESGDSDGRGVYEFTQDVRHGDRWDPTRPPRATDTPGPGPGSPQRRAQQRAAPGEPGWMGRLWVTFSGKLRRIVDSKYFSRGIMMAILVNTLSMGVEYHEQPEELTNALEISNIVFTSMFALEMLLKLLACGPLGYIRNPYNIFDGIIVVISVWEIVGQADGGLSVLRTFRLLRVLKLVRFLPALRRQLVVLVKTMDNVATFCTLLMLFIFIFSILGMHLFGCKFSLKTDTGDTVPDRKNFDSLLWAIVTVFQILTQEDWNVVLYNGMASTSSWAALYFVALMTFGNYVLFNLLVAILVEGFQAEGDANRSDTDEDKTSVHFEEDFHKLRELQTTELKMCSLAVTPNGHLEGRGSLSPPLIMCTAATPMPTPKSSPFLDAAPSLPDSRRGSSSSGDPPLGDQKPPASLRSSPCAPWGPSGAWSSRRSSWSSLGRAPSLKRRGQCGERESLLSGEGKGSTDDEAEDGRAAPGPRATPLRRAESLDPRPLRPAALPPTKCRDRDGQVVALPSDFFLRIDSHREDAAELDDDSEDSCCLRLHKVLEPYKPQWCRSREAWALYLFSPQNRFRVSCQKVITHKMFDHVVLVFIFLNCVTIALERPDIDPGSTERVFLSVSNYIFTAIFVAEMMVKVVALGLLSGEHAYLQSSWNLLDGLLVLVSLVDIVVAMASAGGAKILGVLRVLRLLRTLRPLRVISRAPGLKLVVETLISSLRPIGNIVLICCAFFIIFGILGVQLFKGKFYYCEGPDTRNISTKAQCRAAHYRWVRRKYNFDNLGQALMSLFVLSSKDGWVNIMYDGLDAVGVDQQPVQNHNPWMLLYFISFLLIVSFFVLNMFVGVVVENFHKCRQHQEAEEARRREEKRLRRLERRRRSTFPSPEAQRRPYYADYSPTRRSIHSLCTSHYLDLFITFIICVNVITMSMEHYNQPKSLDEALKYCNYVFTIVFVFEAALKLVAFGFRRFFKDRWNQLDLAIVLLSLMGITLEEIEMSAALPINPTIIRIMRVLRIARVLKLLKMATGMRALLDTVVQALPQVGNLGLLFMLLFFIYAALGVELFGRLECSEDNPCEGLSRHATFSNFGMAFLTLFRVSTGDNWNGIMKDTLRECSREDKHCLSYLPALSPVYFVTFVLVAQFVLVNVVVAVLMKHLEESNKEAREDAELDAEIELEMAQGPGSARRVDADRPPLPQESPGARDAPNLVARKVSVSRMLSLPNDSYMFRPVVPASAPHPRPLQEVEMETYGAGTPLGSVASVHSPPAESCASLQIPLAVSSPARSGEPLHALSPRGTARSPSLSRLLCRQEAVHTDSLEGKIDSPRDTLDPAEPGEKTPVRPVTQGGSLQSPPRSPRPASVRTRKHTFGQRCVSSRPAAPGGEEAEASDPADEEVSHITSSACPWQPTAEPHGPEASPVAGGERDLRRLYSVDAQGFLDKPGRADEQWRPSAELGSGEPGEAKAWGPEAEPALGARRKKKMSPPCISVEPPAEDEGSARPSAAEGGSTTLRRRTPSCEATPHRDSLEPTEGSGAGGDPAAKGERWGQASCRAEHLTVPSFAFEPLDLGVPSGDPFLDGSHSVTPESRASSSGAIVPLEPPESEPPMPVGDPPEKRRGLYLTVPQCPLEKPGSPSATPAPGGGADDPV
row,Structure (SMILES),IC50
1,"O=C(Cc1ccc(C2CC2)cc1)N[C@@H]1CCN(c2cccc(C(F)(F)F)n2)C1 [Example 179, (R)-2-(4-cyclopropylphenyl)-N-(1-(6-(trifluoromethyl)pyridin-2-yl)pyrrolidin-3-yl)acetamide]",240 nM
2,"CC(C)Cc1ccc(C(C)C(=O)N[C@@H]2CCN(c3cncc(C(F)(F)F)c3)C2)cc1 (stereo partly drawn) [Example 17, 2-(4-Isobutylphenyl)-N—((R)-1-(5-(trifluoromethyl)pyridin-3-yl)pyrrolidin-3-yl)propanamide]",380 nM
3,"O=C(Cc1ccc2ncccc2c1)N[C@@H]1CCN(c2cncc(C(F)(F)F)c2)C1 [Example 77, (R)-2-(quinolin-6-yl)-N-(1-(5-(trifluoromethyl)pyridin-3-yl)pyrrolidin-3-yl)acetamide]",200 nM
4,"CC(C)c1ccc(CC(=O)N[C@@H]2CCN(c3cnc(C(F)(F)F)nc3)C2)cc1 [Example 3, (R)-2-(4-isopropylphenyl)-N-(1-(2-(trifluoromethyl)pyrimidin-5-yl)pyrrolidin-3-yl)acetamide]",850 nM
5,"O=C(Cc1ccc2[nH]ncc2c1)N[C@@H]1CCN(c2cncc(C(F)(F)F)c2)C1 [Example 159, (R)-2-(1H-indazol-5-yl)-N-(1-(5-(trifluoromethyl)pyridin-3-yl)pyrrolidin-3-yl)acetamide]",510 nM
6,"O=C(Cc1ccc2[nH]nnc2c1)N[C@@H]1CCN(c2cncc(C(F)(F)F)c2)C1 [Example 163, (R)-2-(1H-benzo[d][1,2,3]triazol-5-yl)-N-(1-(5-(trifluoromethyl)pyridin-3-yl)pyrrolidin-3-yl)acetamide]",1400 nM
7,"COc1cc(OC)nc(N2CC[C@@H](NC(=O)Cc3ccc(C4CC4)cc3)C2)n1 [Example 180, (R)-2-(4-cyclopropylphenyl)-N-(1-(4,6-dimethoxypyrimidin-2-yl)pyrrolidin-3-yl)acetamide]",2100 nM
8,"O=C(N[C@@H]1CCN(c2cncc(C(F)(F)F)c2)C1)C1(c2ccc(Cl)cc2)CC1 [Example 24, (R)-1-(4-chlorophenyl)-N-(1-(5-(trifluoromethyl)pyridin-3-yl)pyrrolidin-3-yl)cyclopropane-1-carboxyamide]",720 nM
9,"C[C@@H]1CN(c2ccc(CC(=O)N[C@@H]3CCN(c4cncc(C(F)(F)F)c4)C3)cc2)C[C@H](C)O1 [Example 86, 2-(4-((2R,6S)-2,6-dimethylmorpholino)phenyl)-N—((R)-1-(5-(trifluoromethyl)pyridin-3-yl)pyrrolidin-3-yl) acetamide]",370 nM
10,"N#CC1(NC(=O)Cc2ccc(C3CC3)cc2)CCN(c2cncc(C(F)(F)F)c2)C1 (stereo not drawn) [Example 36, N-(3-cyano-1-(5-(trifluoromethyl)pyridin-3-yl)pyrrolidin-3-yl)-2-(4-cyclopropylphenyl)acetamide]",980 nM
11,"O=C(Cc1ccc(C(F)(F)F)cc1)N[C@@H]1CCN(c2ccc(F)c(C(F)(F)F)c2)C1 [Example 184, (R)—N-(1-(4-fluoro-3-(trifluoromethyl)phenyl)pyrrolidin-3-yl)-2-(4-(trifluoromethyl)phenyl)acetamide]",3000 nM
12,"O=C(N[C@H]1CCN(c2ccc(C(F)(F)F)cc2)C1)C1CC1c1nc2ccccc2[nH]1 (single isomer, unassigned) [Example 53]",1000 nM
13,"O=C(Cc1ccc(N2CCCCC2=O)cc1)N[C@@H]1CCN(c2cncc(C(F)(F)F)c2)C1 [Example 96, (R)-2-(4-(2-oxopiperidin-1-yl)phenyl)-N-(1-(5-(trifluoromethyl)pyridin-3-yl)pyrrolidin-3-yl)acetamide]",410 nM
14,"CC(=O)N1CCN(c2ccc(CC(=O)N[C@@H]3CCN(c4cncc(C(F)(F)F)c4)C3)cc2)CC1 [Example 95, (R)-2-(4-(4-acetylpiperazin-1-yl)phenyl)-N-(1-(5-(trifluoromethyl)pyridin-3-yl)pyrrolidin-3-yl)acetamide]",230 nM

# The remaining compounds from weak to strong by IC50, led by results:
row,IC50,Structure (SMILES)
1,200 nM,"O=C(Cc1ccc(C2CC2)cc1)N[C@H]1CN(c2cncc(C(F)(F)F)c2)C[C@@H]1F [Example 28, 2-(4-cyclopropylphenyl)-N-((3S,4S)-4-fluoro-1-(5-(trifluoromethyl)pyridin-3-yl)pyrrolidin-3-yl)acetamide]"
2,180 nM,"O=C(Cc1ccc(N2CCC(F)(F)C2)cc1)N[C@@H]1CCN(c2ccc(C(F)(F)F)nc2)C1 [Example 84, (R)-2-(4-(3,3-difluoropyrrolidin-1-yl)phenyl)-N-(1-(6-(trifluoromethyl)pyridin-3-yl)pyrrolidin-3-yl)acetamide]"
3,180 nM,"O=C(Cc1ccc(C(F)(F)F)cc1F)N[C@@H]1CCN(c2cncc(C(F)(F)F)c2)C1 [Example 141, (R)-2-(2-fluoro-4-(trifluoromethyl)phenyl)-N-(1-(5-(trifluoromethyl)pyridin-3-yl)pyrrolidin-3-yl)acetamide]"
4,170 nM,"Cn1nnc2cc(CC(=O)N[C@@H]3CCN(c4ccc(C(F)(F)F)nc4)C3)ccc21 [Example 168, (R)-2-(1-methyl-1H-benzo[d][1,2,3]triazol-5-yl)-N-(1-(6-(trifluoromethyl)pyridin-3-yl)pyrrolidin-3-yl)acetamide]"
5,130 nM,"O=C(Cc1ccc(C2CC2)cc1)N[C@H]1CN(c2cncc(C(F)(F)F)c2)CC12CC2 [Example 6, (R)-2-(4-cyclopropylphenyl)-N-(5-(5-(trifluoromethyl)pyridin-3-yl)-5-azaspiro[2.4]heptan-7-yl) acetamide]"
6,130 nM,"O=C(N[C@@H]1CCN(c2ccc3cc(F)ccc3n2)C1)[C@H]1C[C@@H]1c1nc2ccccc2[nH]1 [Example 74, (1S,2S)-2-(1H-benzo[d]imidazol-2-yl)-N—((R)-1-(6-fluoroquinolin-2-yl)pyrrolidin-3-yl)cyclopropane-1-carboxyamide]"
7,100 nM,"NC(C(=O)N[C@@H]1CCN(c2cncc(C(F)(F)F)c2)C1)c1ccc(C2CC2)cc1 (single isomer, unassigned) [Example 137A]"
8,91 nM,"O=C(Cc1ccc(OC(F)(F)F)cc1)N[C@@H]1CCN(c2cncc(C(F)(F)F)c2)C1 [Example 115, (R)-2-(4-(trifluoromethoxy)phenyl)-N-(1-(5-(trifluoromethyl)pyridin-3-yl)pyrrolidin-3-yl)acetamide]"
9,87 nM,"O=C(N[C@@H]1CCN(c2ccc(C(F)(F)F)nc2)C1)[C@H]1C[C@@H]1c1nc2ccccc2[nH]1 [Example 54, (1S,2S)-2-(1H-benzo[d]imidazol-2-yl)-N—((R)-1-(6-(trifluoromethyl)pyridin-3-yl)pyrrolidin-3-yl)cyclopropane-1-carboxyamide]"
10,32 nM,"Cn1ccc2ccc(CC(=O)N[C@@H]3CCN(c4cncc(C(F)(F)F)c4)C3)cc21 [Example 91, (R)-2-(1-methyl-1H-indol-6-yl)-N-(1-(5-(trifluoromethyl)pyridin-3-yl)pyrrolidin-3-yl)acetamide]"
11,23 nM,"O=C(Cc1ccc(-n2cccn2)cc1)N[C@@H]1CCN(c2cncc(C(F)(F)F)c2)C1 [Example 146, (R)-2-(4-(1H-pyrazol-1-yl)phenyl)-N-(1-(5-(trifluoromethyl)pyridin-3-yl)pyrrolidin-3-yl)acetamide]"
12,9.3 nM,"O=C(N[C@@H]1CCN(c2cncc(C(F)(F)F)c2)C1)C1CC1c1ccc(Br)cc1 (single isomer, unassigned) [Example 100A]"
13,5.7 nM,"O=C(N[C@@H]1CCN(c2cncc(C(F)(F)F)c2)C1)C1CC1c1ccc(Cl)cc1 (single isomer, unassigned) [Example 108A]"

# — patent publication US20220226299A1 (NIPPON CHEMIPHAR CO., LTD., priority 2019, published 2022)
